Experiments:
[1] = Hygroscopicity / Dynamic Vapor Sorption (DVS) moisture sorption isotherm; type: physicochemical
Method: Moisture sorption isotherms were collected on a DVS-1 system from Surface Measurement Systems UK Ltd. (London, UK) for both crystalline Form I of nicotinamide riboside chloride and for the amorphous form of nicotinamide riboside chloride. Sample sizes were between 9.7 and 14.3 mg of solid material. The relative humidity was started with an initial drying step going from 40% RH to 0% RH. Subsequently, the relative humidity was increased to 95% (sorption), decreased to 0% RH (desorption) and increased again to 95% RH (sorption). Weight equilibration was set per step with a holding time of 1 hour (10% relative humidity step). Individual samples sizes were 12.6568 mg for crystalline Form I and 9.6799 mg for the amorphous sample. FIG. 8A provides a DVS change in mass plot for a sample of the crystalline Form I of nicotinamide riboside chloride, and FIG. 8B provides a DVS isotherm plot for a sample of the crystalline Form I of nicotinamide riboside chloride. FIG. 9A provides a DVS change in mass plot for a sample of the amorphous form of nicotinamide riboside chloride, and FIG. 9B provides a DVS isotherm plot for a sample of the amorphous form of nicotinamide riboside chloride.
FIG. 10 provides a comparison of the sorption curve for crystalline Form I of nicotinamide riboside chloride with the sorption curve for the amorphous sample. […] Even at 70% relative humidity, the weight of the crystalline sample had not increased by more than about 1.0%. These characteristics of the crystalline Form I are advantageous for the handling of the material overall and represent the ability to remain stable over a greater range of working conditions relative to the amorphous form.

[2] = type: physicochemical
Source text: The instant crystalline Form I of nicotinamide riboside chloride may be provided in one of several different morphologies. For example, the crystalline material may exist in a morphology having a bulk density of about 0.25 to about 0.4 g/mL, or may exist in a morphology having a bulk density of about 0.40 to about 0.65 g/mL. The present disclosure also relates to mixtures of at least these two morphologies in any proportion. FIG. 3A depicts a Scanning Electron Microscopy (SEM) image of the inventive crystalline nicotinamide riboside chloride in a morphology having a bulk density of about 0.25 to about 0.4 g/mL, and FIG. 3B depicts a Scanning Electron Microscopy (SEM) image of the inventive crystalline nicotinamide riboside chloride in a morphology having a bulk density of about 0.40 to about 0.65 g/mL. […] This morphology also appears to provide the product with a slightly higher purity as well. Because of the purity, stability, and color variations in the other morphology (the morphology having a bulk density of about 0.40 to about 0.65 g/mL), in at least some instances a preference exists for the crystalline nicotinamide chloride having a bulk density of about 0.25 to about 0.4 g/mL as it appears to produce higher quality product with more consistency.

[3] = high-fat diet supplemented with nicotinamide riboside; cited from earlier work

In the case of “3-carbamoyl-1-[(2R,3R,4S5R)-3,4-dihydroxy-5-(hydroxymethypoxolan-2-yl]-pyrin-1-ylium chloride”, the “rate of water absorption compared with amorphous material” value ([1]; 0% to 60% relative humidity, sorption curve FIG. 10) is reported as “much less prone to absorption at lower relative humidities than the amorphous material”, the “weight increase of sample (water sorption)” value ([1]; 70% relative humidity) is reported as at most 1.0% and the “water uptake (water vapor sorption isotherm)” value ([1]; relative humidity of up to 60%) is reported as “not more than 0.5 wt %”. The “water uptake (water vapor sorption isotherm)” value ([1]; relative humidity of up to 70%) was “not more than 1.0 wt %”.
With `NC(=O)c1ccc[n+]([C@@H]2O[C@H](CO)[C@@H](O)[C@H]2O)c1.[Cl-]` the “stability to degradation via oxygen or water absorption, compared with morphology of bulk density about 0.40 to about 0.65 g/mL” value [2] was “more stable to degradation via oxygen or water absorption”.
In the case of `NC(=O)c1ccc[n+]([C@@H]2O[C@H](CO)[C@@H](O)[C@H]2O)c1` [nicotinamide riboside, Nicotinamide riboside], the “less weight gained than mice on same high-fat diet without nicotinamide riboside” value [3] is listed as 60%.
